Measured values taken from patent US20060264419A1 (priority 2003, published 2006).

Each compound was assayed against 5-HT2A receptors (Rattus norvegicus, UniProt P14842) (assay: in-vitro affinity to 5-HT2A receptors, displacement of [3H]ketanserine (Example A1)). Conditions: read-out: HT2A IC50.
Type: binding
Description: The 5-HT2A receptors are exposed both to [^3H]ketanserine (a substance which is known for its affinity to the receptor) and also to the test compound. The decrease in the affinity of [^3H]ketanserine to the receptor is an indication of the affinity of the test substance to the 5-HT2A receptor.

5-HT2A receptors, sequence (P14842 whole entry): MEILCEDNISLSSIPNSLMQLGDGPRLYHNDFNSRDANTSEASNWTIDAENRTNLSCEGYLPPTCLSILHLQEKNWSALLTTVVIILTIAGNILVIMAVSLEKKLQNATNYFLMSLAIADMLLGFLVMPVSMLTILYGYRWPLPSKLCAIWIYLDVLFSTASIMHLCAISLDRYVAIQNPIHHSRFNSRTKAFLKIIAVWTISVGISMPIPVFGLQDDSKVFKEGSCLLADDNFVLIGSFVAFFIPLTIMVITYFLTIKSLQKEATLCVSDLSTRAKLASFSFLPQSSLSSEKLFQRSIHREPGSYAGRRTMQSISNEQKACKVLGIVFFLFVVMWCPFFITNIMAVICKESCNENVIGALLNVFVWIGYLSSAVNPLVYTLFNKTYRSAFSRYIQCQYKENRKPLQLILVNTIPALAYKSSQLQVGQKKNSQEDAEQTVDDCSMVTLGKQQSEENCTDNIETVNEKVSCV

Row | SMILES | IC50 [nM]
1 | CN1CCN(Cc2cnn(-c3ccc(-c4ccccc4Cl)cc3)c2-c2ccccc2F)CC1 [Example 984, 1-[1-(2′-Chlorobiphenyl-4-yl)-5-(2-fluoro-phenyl)-1H-pyrazol-4-ylmethyl]-4-methyl-piperazine] | 120
2 | CN1CCN(Cc2cnn(-c3ccc(-c4cccnc4)cc3)c2-c2ccccc2F)CC1 [Example 1000, 1-[5-(2-Fluorophenyl)-1-(4-pyridin-3-ylphenyl)-1H-pyrazol-4-ylmethyl]-4-methylpiperazine] | 170
3 | OCc1cnn(-c2ccc(-c3ccc(F)cc3)cc2)c1-c1ccccc1Cl [Example 1048, [5-(2-Chlorophenyl)-1-(4′-fluoro-biphenyl-4-yl)-1H-pyrazol-4-yl]methanol] | 380
4 | Fc1ccccc1-c1c(CN2CCN(Cc3ccncc3)CC2)cnn1-c1ccc(-c2ccccc2)cc1 [Example 968, 1-[1-Biphenyl-4-yl-5-(2-fluorophenyl)-1H-pyrazol-4-ylmethyl]-4-pyridin-4-ylmethylpiperazine] | 75
5 | CCC1(O)CCN(Cc2cnn(-c3ccc(-c4ccccc4)cc3)c2-c2ccccc2F)CC1 [Example 1033, 1-[1-Biphenyl-4-yl-5-(2-fluorophenyl)-1H-pyrazol-4-ylmethyl]-4-ethylpiperidin-4-ol] | 280
6 | CN1CCN(Cc2cnn(-c3ccc(-c4cc(Cl)cc(Cl)c4)cc3)c2-c2ccccc2F)CC1 [Example 973, 1-[1-(3′,5′-Dichlorobiphenyl-4-yl)-5-(2-fluoro-phenyl)-1H-pyrazol-4-ylmethyl]-4-methyl-piperazine] | 86

More lines, now with the values ahead:

Row | IC50 [nM] | SMILES
7 | 160 | CN1CCC(N(C)Cc2cnn(-c3ccc(-c4ccccc4)cc3)c2-c2ccccc2F)CC1 [Example 995, [1-Biphenyl-4-yl-5-(2-fluorophenyl)-1H-pyrazol-4-ylmethyl]methyl-(1-methylpiperidin-4-yl)amine]
8 | 56 | CN1CCN(Cc2cnn(-c3ccc(-c4ccc(F)cc4F)cc3)c2-c2ccccc2F)CC1 [Example 955, 1-[1-(2′,4′-Difluorobiphenyl-4-yl)-5-(2-fluoro-phenyl)-1H-pyrazol-4-ylmethyl]-4-methyl-piperazine]
9 | 320 | COc1ccc(-c2c(CN3CCN(C(C)C)CC3)cnn2-c2ccc(-c3ccc(F)cc3)cc2)cc1 [Example 1040, 1-[1-(4′-Fluorobiphenyl-4-yl)-5-(4-methoxy-phenyl)-1H-pyrazol-4-ylmethyl]-4-isopropyl-piperazine]
10 | 311 | O=C(CN1CCN(Cc2cnn(-c3ccc(-c4ccccc4)cc3)c2-c2ccccc2F)CC1)N1CCCC1 [Example 1038, 2-{4-[1-Biphenyl-4-yl-5-(2-fluoro-phenyl)-1H-pyrazol-4-ylmethyl]piperazin-1-yl}-1-pyrrolidin-1-ylethanone]
11 | 220 | Cc1nn(-c2ccccc2)c(C)c1CN1CCN(C(=O)C(CCC(=O)O)N2C(=O)c3ccccc3C2=O)CC1 (stereo not shown) [Example 1015]
12 | 390 | CN1CCN(Cc2cnn(-c3cccc(-c4ccc(Cl)cc4)c3)c2-c2ccccc2F)CC1 [Example 1049, 1-[1-(4′-Chlorobiphenyl-3-yl)-5-(2-fluoro-phenyl)-1H-pyrazol-4-ylmethyl]-4-methyl-piperazine]
13 | 160 | Fc1ccccc1-c1c(CN2CC3CC2CO3)cnn1-c1ccc(-c2ccccc2)cc1 (stereo not shown) [Example 996, 5-[1-Biphenyl-4-yl-5-(2-fluorophenyl)-1H-pyrazol-4-ylmethyl]-2-oxa-5-azabicyclo-[2.2.1]heptane]

Same assay, conditions: target not given; description names affinity to 5-HT2A receptors; read-out: IC50

Row | SMILES | IC50 [nM]
14 | NC(=O)C1CCN(Cc2cnn(-c3ccc(-c4ccccc4)cc3)c2-c2ccccc2F)CC1 [(85), 1-[1-Biphenyl-4-yl-5-(2-fluorophenyl)-1H-pyrazol-4-ylmethyl]-piperidine-4-carboxamide] | 870
15 | Nc1ccncc1NCc1cnn(-c2ccc(-c3ccccc3)cc2)c1-c1ccccc1F [(177), N^3-[1-Biphenyl-4-yl-5-(2-fluorophenyl)-1H-pyrazol-4-ylmethyl]-pyridine-3,4-diamine] | 180
16 | CCN(CC)Cc1cnn(-c2ccc(-c3ccccc3)cc2)c1-c1ccccc1F [(33), [1-Biphenyl-4-yl-5-(2-fluorophenyl)-1H-pyrazol-4-ylmethyl]-diethylamine] | 55
17 | Fc1ccccc1-c1c(CN2CCNCC2)cnn1-c1ccc(-c2ccccc2)cc1 [(55), 1-[1-Biphenyl-4-yl-5-(2-fluorophenyl)-1H-pyrazol-4-ylmethyl]-piperazine] | 26
18 | CCN(Cc1ccccc1)Cc1cnn(-c2ccc(-c3ccccc3)cc2)c1-c1ccccc1F [(32), Benzyl-[1-biphenyl-4-yl-5-(2-fluorophenyl)-1H-pyrazol-4-ylmethyl]ethylamine] | 320
19 | O=C(O)CNCc1cnn(-c2ccc(-c3ccccc3)cc2)c1-c1ccccc1F [(29), {[1-Biphenyl-4-yl-5-(2-fluorophenyl)-1H-pyrazol-4-ylmethyl]-amino}acetic acid] | 1700
20 | NCCNCc1cnn(-c2ccc(-c3ccccc3)cc2)c1-c1ccccc1F [(76), N^1-[1-Biphenyl-4-yl-5-(2-fluorophenyl)-1H-pyrazol-4-ylmethyl]-ethane-1,2-diamine] | 6.5
21 | Fc1ccc(-c2ccc(-n3ncc(CNc4ccon4)c3-c3ccccc3F)cn2)cc1 [(174), {5-(2-Fluorophenyl)-1-[6-(4-fluorophenyl)pyridin-3-yl]-1H-pyrazol-4-ylmethyl}isoxazol-3-ylamine] | 320
22 | Fc1ccccc1-c1c(CNCCCn2ccnc2)cnn1-c1ccc(-c2ccccc2)cc1 [(152), [1-Biphenyl-4-yl-5-(2-fluorophenyl)-1H-pyrazol-4-ylmethyl]-(3-imidazol-1-ylpropyl)amine] | 130
23 | NC(=O)CN1CCN(Cc2cnn(-c3ccc(-c4ccccc4)cc3)c2-c2ccccc2F)CC1 [(111), 2-{4-[1-Biphenyl-4-yl-5-(2-fluorophenyl)-1H-pyrazol-4-ylmethyl]piperazin-1-yl}acetamide] | 360
24 | CCN1CCN(Cc2cnn(-c3ccc(-c4ccccc4)cc3)c2-c2ccccc2F)CC1 [(90), 1-[1-Biphenyl-4-yl-5-(2-fluorophenyl)-1H-pyrazol-4-ylmethyl]-4-ethylpiperazine] | 28
25 | Fc1ccccc1-c1cc(CN2CCCCC2)nn1-c1ccc(-c2ccccc2)cc1 [(43), 1-[1-Biphenyl-4-yl-5-(2-fluorophenyl)-1H-pyrazol-3-ylmethyl]-piperidine] | 120
26 | CN1CCN(Cc2cc(-c3ccccc3F)n(-c3ccc(-c4ccccc4)cc3)n2)CC1 [(45), 1-[1-Biphenyl-4-yl-5-(2-fluorophenyl)-1H-pyrazol-3-ylmethyl]-4-methylpiperazine] | 300
27 | C=CCC(O)c1cnn(-c2ccc(-c3ccccc3)cc2)c1-c1ccccc1F (stereo not shown) [(150), 1-[1-Biphenyl-4-yl-5-(2-fluorophenyl)-1H-pyrazol-4-yl]-but-3-en-1-ol] | 1300
28 | Fc1ccccc1-c1c(CN2CCOCC2)cnn1-c1ccc(-c2cccs2)cc1 [(62), 4-[5-(2-Fluorophenyl)-1-(4-thiophen-2-ylphenyl)-1H-pyrazol-4-ylmethyl]morpholine] | 620
29 | Fc1ccccc1-c1c(CN2CCNCC2)cnn1-c1ccc(C(F)(F)F)cc1 [(86), 1-[5-(2-Fluorophenyl)-1-(4-trifluoromethylphenyl)-1H-pyrazol-4-ylmethyl]piperazine] | 43
30 | Fc1ccccc1-c1c(C=NNC2=NCCN2)cnn1-c1ccc(-c2ccccc2)cc1 [(166), N-[1-Biphenyl-4-yl-5-(2-fluorophenyl)-1H-pyrazol-4-yl-methylene]-N′-(4,5-dihydro-1H-imidazol-2-yl)hydrazine] | 1200
31 | OCc1cnn(-c2ccc(-c3ccc(F)cc3)nc2)c1-c1ccccc1F [(119), {5-(2-Fluorophenyl)-1-[6-(4-fluorophenyl)pyridin-3-yl]-1H-pyrazol-4-yl}methanol] | 300
32 | CC(C)(C)OC(=O)N1CCC(NCc2cnn(-c3ccc(-c4ccccc4)cc3)c2-c2ccccc2F)C1 (stereo not shown) [(176), tert-Butyl 3-{[1-biphenyl-4-yl-5-(2-fluorophenyl)-1H-pyrazol-4-ylmethyl]amino}pyrrolidine-1-carboxylate] | 460

The next lines start with the values.

Row | IC50 [nM] | SMILES
33 | 430 | CN1CCN(Cc2cnn(-c3ccc(-c4cc(F)ccc4F)nc3)c2-c2ccccc2F)CC1 [(147), 1-[1-[6-(2,5-Difluorophenyl)pyridin-3-yl]-5-(2-fluorophenyl)-1H-pyrazol-4-ylmethyl]-4-methylpiperazine]
34 | 200 | c1ccc(-c2ccc(-n3ncc(CN4CCNCC4)c3-c3ccccn3)cc2)cc1 [(60), 1-(1-Biphenyl-4-yl-5-pyridin-2-yl-1H-pyrazol-4-ylmethyl)-piperazine]
35 | 520 | CC(C)(C)OC(=O)N1CC2C(C1)C2NCc1cnn(-c2ccc(-c3ccccc3)cc2)c1-c1ccccc1F (stereo not shown) [(190), tert-Butyl 6-{[1-biphenyl-4-yl-5-(2-fluorophenyl)-1H-pyrazol-4-ylmethyl]amino}-3-azabicyclo[3.1.0]hexane-3-carboxylate]
36 | 310 | Fc1ccccc1-c1c(CNC2CCN(Cc3ccccc3)C2)cnn1-c1ccc(-c2ccccc2)cc1 (stereo not shown) [(161), (1-Benzylpyrrolidin-3-yl)-[1-biphenyl-4-yl-5-(2-fluorophenyl)-1H-pyrazol-4-ylmethyl]amine]
37 | 23 | Fc1ccccc1-c1c(CCCN2CCOCC2)cnn1-c1ccc(-c2ccccc2)cc1 [(47), 4-{3-[1-Biphenyl-4-yl-5-(2-fluorophenyl)-1H-pyrazol-4-yl]propyl}morpholine]
38 | 600 | Fc1ccccc1-c1ccc(-n2ncc(CN3CCOCC3)c2-c2ccccc2F)cn1 [(146), 4-{5-(2-Fluorophenyl)-1-[6-(2-fluorophenyl)pyridin-3-yl]-1H-pyrazol-4-ylmethyl}morpholine]
39 | 360 | O=C(c1cnn(-c2ccc(-c3ccccc3)cc2)c1-c1ccccc1F)N1CCOCC1 [(193), 1-[1-Biphenyl-4-yl-5-(2-fluorophenyl)-1H-pyrazol-4-yl]-1-morpholin-4-ylmethanone]
40 | 66 | Fc1ccccc1-c1c(CN2CCC(Cc3cccnc3)CC2)cnn1-c1ccc(-c2ccccc2)cc1 [(195), 3-{1-[1-Biphenyl-4-yl-5-(2-fluorophenyl)-1H-pyrazol-4-ylmethyl]piperidin-4-ylmethyl}pyridine]
